From ChEMBL document CHEMBL5120859, “Optimization of 4-arylthiophene-3-carboxylic acid derivatives as inhibitors of ANO1: Lead optimization studies toward their analgesic efficacy for inflammatory pain” (Eur J Med Chem, 2022)
The source made the active and inactive calls. The calls are words filed in the database; no cut-off is given here.

Experiments:
[1] = biological target: Voltage-dependent N-type calcium channel subunit alpha-1B (Homo sapiens) (UniProt Q00975); assay: Inhibition of Cav2.2 (unknown origin) at a holding potential +10 mV at 10 uM by whole cell patch clamp electrophysiology relative to control
Voltage-dependent N-type calcium channel subunit alpha-1B (Homo sapiens), sequence (Q00975 whole entry, looked up, tested part not stated): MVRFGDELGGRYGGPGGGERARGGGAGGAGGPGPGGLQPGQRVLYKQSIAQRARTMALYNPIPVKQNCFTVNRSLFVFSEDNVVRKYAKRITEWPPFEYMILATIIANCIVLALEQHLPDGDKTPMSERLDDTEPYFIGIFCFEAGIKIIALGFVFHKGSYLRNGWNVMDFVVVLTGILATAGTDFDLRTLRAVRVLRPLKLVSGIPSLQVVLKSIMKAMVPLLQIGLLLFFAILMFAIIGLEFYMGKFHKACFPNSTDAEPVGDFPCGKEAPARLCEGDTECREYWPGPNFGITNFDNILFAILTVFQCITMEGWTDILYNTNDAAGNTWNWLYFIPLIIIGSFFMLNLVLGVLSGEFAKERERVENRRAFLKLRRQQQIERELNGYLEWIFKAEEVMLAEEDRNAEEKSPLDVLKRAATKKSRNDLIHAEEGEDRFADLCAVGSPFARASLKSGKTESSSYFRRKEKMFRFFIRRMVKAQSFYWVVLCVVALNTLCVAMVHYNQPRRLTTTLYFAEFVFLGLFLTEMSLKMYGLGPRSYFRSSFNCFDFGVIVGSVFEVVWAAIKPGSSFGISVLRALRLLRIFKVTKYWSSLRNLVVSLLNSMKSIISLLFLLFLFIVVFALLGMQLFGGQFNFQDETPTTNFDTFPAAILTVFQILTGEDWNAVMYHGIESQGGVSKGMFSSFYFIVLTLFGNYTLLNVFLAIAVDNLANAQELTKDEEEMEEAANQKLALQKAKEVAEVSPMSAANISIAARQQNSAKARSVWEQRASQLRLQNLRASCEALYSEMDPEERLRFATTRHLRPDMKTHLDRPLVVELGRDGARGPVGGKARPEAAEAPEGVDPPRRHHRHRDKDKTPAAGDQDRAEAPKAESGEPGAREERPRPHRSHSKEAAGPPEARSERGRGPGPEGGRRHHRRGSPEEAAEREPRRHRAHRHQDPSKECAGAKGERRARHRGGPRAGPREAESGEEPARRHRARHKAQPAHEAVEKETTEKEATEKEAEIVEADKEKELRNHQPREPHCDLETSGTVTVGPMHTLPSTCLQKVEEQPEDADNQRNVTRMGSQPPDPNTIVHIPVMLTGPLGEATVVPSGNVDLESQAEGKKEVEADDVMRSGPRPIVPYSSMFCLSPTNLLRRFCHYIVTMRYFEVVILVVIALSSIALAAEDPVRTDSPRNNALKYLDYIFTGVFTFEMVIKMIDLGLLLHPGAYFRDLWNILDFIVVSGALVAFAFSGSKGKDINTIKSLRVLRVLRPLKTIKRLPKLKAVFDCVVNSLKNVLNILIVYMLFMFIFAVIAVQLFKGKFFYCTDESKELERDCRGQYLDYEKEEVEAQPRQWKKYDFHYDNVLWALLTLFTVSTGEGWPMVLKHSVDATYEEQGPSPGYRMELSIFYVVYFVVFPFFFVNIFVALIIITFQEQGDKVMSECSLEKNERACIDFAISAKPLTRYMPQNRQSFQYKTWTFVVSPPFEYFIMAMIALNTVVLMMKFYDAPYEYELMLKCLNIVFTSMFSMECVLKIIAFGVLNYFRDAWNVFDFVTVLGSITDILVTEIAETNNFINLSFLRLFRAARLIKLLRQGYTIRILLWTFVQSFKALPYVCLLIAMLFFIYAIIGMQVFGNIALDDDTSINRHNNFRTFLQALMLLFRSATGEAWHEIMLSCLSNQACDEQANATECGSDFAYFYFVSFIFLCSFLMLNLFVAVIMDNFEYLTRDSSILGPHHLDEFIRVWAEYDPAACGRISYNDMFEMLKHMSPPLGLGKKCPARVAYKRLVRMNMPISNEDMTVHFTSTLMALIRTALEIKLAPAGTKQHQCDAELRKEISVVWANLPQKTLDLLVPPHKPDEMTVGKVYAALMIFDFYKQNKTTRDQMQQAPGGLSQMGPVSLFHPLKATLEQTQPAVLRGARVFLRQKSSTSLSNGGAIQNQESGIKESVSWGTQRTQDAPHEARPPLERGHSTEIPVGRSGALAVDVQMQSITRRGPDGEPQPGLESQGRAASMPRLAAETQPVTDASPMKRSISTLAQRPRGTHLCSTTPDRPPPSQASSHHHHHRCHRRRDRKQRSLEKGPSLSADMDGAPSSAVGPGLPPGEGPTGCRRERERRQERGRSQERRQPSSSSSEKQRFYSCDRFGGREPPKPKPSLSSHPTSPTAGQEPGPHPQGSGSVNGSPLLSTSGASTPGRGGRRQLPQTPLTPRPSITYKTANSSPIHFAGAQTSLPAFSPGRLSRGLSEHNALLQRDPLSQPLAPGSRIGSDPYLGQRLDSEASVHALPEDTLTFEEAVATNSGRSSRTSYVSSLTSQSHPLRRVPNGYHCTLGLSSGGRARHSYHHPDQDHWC

Anoctamin-1 = biological target: T1, Anoctamin-1 (Homo sapiens, UniProt Q5XXA6); assay: Inhibition of YFP tagged ANO1 (unknown origin) expressed in FRT cells incubated for 24 hrs by fluorescence plate reader assay; format: cell-based
T1 sequence (Q5XXA6 whole entry): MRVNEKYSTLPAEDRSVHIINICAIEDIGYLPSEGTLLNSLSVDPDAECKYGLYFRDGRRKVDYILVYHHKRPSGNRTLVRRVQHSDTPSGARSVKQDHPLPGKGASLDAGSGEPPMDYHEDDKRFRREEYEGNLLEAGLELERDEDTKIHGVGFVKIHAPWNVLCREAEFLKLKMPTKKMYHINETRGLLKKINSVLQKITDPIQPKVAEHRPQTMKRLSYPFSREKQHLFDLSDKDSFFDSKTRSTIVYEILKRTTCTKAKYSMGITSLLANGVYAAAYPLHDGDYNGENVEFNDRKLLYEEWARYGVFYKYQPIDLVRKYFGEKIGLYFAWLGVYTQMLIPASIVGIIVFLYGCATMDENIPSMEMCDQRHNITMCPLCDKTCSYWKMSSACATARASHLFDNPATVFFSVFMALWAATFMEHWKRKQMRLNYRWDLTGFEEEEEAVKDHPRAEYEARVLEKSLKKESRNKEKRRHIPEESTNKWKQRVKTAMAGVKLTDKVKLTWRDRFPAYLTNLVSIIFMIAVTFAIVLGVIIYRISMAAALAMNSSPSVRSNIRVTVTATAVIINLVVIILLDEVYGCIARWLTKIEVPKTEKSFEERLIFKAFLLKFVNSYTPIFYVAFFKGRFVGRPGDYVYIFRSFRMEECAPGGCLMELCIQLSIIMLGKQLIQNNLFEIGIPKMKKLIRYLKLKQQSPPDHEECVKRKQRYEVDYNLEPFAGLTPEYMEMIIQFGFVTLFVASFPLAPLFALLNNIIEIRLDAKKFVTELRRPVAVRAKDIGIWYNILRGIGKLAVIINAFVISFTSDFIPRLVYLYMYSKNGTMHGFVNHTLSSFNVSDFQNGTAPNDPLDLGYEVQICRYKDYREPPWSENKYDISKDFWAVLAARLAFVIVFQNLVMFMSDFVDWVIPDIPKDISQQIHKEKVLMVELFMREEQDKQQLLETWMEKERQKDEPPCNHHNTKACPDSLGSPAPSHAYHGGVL

[2] = biological target: T2, Anoctamin-2 (Homo sapiens) (UniProt Q9NQ90); assay: Inhibition of human ANO2 expressed in HEK293 cells at 30 uM incubated for 5 mins by whole cell patch clamp electrophysiology relative to control; format: cell-based
T2 sequence (whole entry): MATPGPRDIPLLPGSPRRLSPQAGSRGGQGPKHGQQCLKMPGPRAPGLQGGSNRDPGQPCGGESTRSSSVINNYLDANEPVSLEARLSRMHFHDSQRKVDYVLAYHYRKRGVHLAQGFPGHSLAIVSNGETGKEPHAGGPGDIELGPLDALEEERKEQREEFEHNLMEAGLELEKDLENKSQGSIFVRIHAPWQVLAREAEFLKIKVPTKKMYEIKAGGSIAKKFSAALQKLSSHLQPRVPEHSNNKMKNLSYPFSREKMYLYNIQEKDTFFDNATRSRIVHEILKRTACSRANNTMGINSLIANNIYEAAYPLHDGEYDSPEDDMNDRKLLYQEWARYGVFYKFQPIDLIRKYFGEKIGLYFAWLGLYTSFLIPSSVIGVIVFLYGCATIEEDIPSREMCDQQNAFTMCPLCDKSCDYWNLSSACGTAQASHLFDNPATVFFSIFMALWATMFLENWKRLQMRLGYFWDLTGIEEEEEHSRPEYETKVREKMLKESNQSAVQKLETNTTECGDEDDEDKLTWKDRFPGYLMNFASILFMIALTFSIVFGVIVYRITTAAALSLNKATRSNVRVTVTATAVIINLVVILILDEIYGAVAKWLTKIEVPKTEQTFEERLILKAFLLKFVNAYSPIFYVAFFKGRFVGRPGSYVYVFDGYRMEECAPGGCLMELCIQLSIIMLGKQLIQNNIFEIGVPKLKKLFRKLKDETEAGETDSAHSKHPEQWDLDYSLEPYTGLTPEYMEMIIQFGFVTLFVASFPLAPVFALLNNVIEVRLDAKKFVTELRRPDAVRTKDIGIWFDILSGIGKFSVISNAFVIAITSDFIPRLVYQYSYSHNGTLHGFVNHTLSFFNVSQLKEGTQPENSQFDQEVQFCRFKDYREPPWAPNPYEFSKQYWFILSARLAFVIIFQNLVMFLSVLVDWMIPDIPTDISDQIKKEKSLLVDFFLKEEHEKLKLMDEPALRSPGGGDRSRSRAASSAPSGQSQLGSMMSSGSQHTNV

Mus musculus [3] = assay: Analgesic activity in C57BL/6 mouse model of formalin-induced allodynia assessed as reduction on foot licking pain response at 40 mg/kg,po measured after 10 mins; format: functional, organism-based
[4] = biological target: T3, Anoctamin-1 (Homo sapiens) (UniProt Q5XXA6); assay: Inhibition of YFP tagged ANO1 (unknown origin) expressed in FRT cells at 30 uM incubated for 24 hrs by whole cell patch clamp electrophysiology relative to control; format: cell-based
T3 sequence (whole entry): T1 sequence (Q5XXA6 whole entry)

Mus musculus [5] = assay: Analgesic activity in C57BL/6 mouse model of formalin-induced allodynia assessed as reduction on foot licking pain response at 20 mg/kg,po measured after 10 mins; format: functional, organism-based
[6] = biological target: Voltage-gated inwardly rectifying potassium channel KCNH2 (Homo sapiens, UniProt Q12809); assay: Cardiotoxicity against human ERG expressed in HEK293 cells by patch clamp assay; format: toxicity, cell-based
Voltage-gated inwardly rectifying potassium channel KCNH2, sequence (Q12809 whole entry): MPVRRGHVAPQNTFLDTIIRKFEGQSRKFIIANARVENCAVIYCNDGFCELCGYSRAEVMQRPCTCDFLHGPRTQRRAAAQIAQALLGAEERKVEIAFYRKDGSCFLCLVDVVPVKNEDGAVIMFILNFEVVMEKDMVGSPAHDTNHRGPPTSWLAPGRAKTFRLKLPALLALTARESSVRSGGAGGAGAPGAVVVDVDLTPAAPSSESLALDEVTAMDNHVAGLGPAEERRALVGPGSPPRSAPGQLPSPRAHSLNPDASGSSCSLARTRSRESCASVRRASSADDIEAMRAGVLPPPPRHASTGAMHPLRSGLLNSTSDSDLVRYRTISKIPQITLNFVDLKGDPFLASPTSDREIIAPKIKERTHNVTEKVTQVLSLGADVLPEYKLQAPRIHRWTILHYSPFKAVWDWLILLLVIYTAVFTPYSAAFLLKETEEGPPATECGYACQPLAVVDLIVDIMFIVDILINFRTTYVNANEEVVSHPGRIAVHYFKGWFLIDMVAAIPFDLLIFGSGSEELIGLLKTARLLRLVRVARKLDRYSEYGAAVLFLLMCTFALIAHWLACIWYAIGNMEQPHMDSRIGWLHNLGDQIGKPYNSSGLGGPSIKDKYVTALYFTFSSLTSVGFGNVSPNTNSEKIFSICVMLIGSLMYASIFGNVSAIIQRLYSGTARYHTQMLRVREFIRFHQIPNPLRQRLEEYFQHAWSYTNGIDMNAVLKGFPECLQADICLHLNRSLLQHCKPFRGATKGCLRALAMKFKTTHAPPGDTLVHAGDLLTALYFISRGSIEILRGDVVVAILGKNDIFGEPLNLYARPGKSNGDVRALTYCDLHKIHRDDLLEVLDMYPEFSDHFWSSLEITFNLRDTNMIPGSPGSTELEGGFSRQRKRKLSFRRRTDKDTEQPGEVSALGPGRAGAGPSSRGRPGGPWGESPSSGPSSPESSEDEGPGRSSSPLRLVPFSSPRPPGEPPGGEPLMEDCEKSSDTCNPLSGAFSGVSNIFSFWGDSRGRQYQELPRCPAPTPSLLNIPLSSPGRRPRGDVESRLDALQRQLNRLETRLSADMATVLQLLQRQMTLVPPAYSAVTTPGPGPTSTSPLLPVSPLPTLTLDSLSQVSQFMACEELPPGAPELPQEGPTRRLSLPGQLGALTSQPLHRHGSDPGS

[7] = Cytotoxicity against human HEK293 cells assessed as inhibition of cell growth at 30 uM incubated for 72 hrs by CCK-8 assay; format: toxicity, cell-based
[8] = biological target: Transient receptor potential cation channel subfamily V member 1 (Homo sapiens) (UniProt Q8NER1); assay: Inhibition of TRPV1 (unknown origin) at a holding potential +100 mV at 30 uM by whole cell patch clamp electrophysiology relative to control
Transient receptor potential cation channel subfamily V member 1 (Homo sapiens), sequence (Q8NER1 whole entry): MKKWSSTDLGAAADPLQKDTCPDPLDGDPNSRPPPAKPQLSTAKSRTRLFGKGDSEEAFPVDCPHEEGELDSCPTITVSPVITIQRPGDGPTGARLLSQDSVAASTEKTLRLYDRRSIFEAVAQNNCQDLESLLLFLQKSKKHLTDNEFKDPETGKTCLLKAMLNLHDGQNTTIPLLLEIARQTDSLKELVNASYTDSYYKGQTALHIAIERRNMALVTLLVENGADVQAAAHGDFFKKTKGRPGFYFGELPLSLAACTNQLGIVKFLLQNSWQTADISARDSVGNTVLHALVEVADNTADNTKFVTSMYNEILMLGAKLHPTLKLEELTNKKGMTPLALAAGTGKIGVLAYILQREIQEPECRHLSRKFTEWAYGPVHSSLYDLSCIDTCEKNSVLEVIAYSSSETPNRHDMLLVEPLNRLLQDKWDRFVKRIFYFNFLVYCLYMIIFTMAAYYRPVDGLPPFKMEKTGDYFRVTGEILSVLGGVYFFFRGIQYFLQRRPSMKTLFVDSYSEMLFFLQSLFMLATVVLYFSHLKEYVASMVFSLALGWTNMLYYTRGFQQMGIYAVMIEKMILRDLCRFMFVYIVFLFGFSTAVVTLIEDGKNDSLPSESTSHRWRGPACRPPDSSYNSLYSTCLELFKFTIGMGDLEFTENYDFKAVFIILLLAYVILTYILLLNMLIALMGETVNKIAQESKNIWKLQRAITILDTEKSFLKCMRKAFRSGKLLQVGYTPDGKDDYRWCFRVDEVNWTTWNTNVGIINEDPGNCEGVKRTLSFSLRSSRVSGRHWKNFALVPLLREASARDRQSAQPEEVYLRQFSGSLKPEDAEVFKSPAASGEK

[9] = biological target: Voltage-gated potassium channel, KQT; KCNQ2(Kv7.2)/KCNQ3(Kv7.3) (Homo sapiens) (UniProt O43526+O43525); assay: Inhibition of KCNQ2/3 (unknown origin) at a holding potential -40 mV at 30 uM by whole cell patch clamp electrophysiology relative to control
[10] = biological target: Transient receptor potential cation channel subfamily V member 1 (Homo sapiens) (UniProt Q8NER1); assay: Inhibition of TRPV1 (unknown origin) at a holding potential +100 mV at 10 uM by whole cell patch clamp electrophysiology relative to control

Molecule	IC50 (Anoctamin-1)	also measured
CADMIUM DICHLORIDE		inhibition [1]: 91.4%
O=C(Nc1scc(-c2ccc(Cl)cc2)c1C(=O)O)c1cnccn1	4.01 µM	
O=C(Nc1scc(-c2ccc(Cl)cc2)c1C(=O)O)c1ccccc1OC(F)(F)F	5.66 µM	
CC(C)(C)C1CCc2c(sc(NC(=O)c3ccco3)c2C(=O)O)C1 (configuration not stated)		inhibition [2]: 71.2%; Activity (Mus musculus [3]): Active
COc1ccccc1/N=N/C(=O)COc1ccc(Cl)cc1C	1.07 µM	inhibition [4]: 42.7%; inhibition [2]: 12.6%
O=C(Nc1scc(-c2ccc(Cl)cc2)c1C(=O)O)c1cc(I)ccc1Cl	78.9 µM	
CC(C)C[C@H](CN)CC(=O)O		Activity (Mus musculus [5]): Active
O=C(Nc1scc(-c2ccc(Cl)cc2)c1C(=O)O)c1cc(Cl)ccc1Br	0.029 µM	inhibition [4]: 32.1%; inhibition [2]: 92.6%; IC50 [6]: > 30 µM; inhibition at 72 h, 30 µM [7]: < 10%; inhibition [8]: 26.4%
COc1ccc(Cl)cc1C(=O)Nc1scc(-c2ccc(Cl)cc2)c1C(=O)O	> 100 µM	
O=C(Nc1scc(-c2ccc(Cl)cc2)c1C(=O)O)c1cc(F)ccc1I	2.21 µM	
O=C(Nc1scc(-c2ccc(Cl)cc2)c1C(=O)O)c1cc(Br)ccc1Cl	83.5 µM	
CC(C)Cc1ccc(C(C)C(=O)O)cc1 (configuration not stated)		Activity (Mus musculus [3]): Active
O=C(Nc1ccc([N+](=O)[O-])cc1Cl)c1cc(Cl)ccc1O [NICLOSAMIDE]	0.028 µM	
O=C(Nc1scc(-c2ccc(Cl)cc2)c1C(=O)O)c1cc(Cl)ccc1C(F)(F)F	1.59 µM	
CCOC(=O)Nc1ccc(NCc2ccc(F)cc2)cc1N		inhibition [9]: 100%
Cc1ccsc1C(=O)Nc1scc(-c2ccc(Cl)cc2)c1C(=O)O	3.12 µM	
O=C(Nc1scc(-c2ccc(Cl)cc2)c1C(=O)O)c1cc(C(F)(F)F)ccc1Cl	36.9 µM	
O=C(Nc1scc(-c2ccc(Cl)cc2)c1C(=O)O)c1cccc2c1OCCO2	> 100 µM	
O=C(Nc1scc(-c2ccc(Cl)cc2)c1C(=O)O)c1cc(I)ccc1F	4.49 µM	
O=C(Nc1scc(-c2ccc(Cl)cc2)c1C(=O)O)c1ccc(Cl)cc1Cl	1.24 µM	

Molecule	IC50 (Anoctamin-1)	also measured
O=C(Nc1scc(-c2ccc(Cl)cc2)c1C(=O)O)c1cc(F)ccc1Cl	6.55 µM	
O=C(O)c1c(-c2ccc(Cl)cc2)csc1NC(=O)c1cccc2cccnc12	> 300 µM	
Cc1ccc(Cl)c(C(=O)Nc2scc(-c3ccc(Cl)cc3)c2C(=O)O)c1	1.79 µM	
COc1ccc(Cl)c(C(=O)Nc2scc(-c3ccc(Cl)cc3)c2C(=O)O)c1	35.9 µM	
O=C(O)c1c(-c2ccc(Cl)cc2)csc1NC(=O)c1cccc2ncccc12	6.99 µM	
Cc1ccc(Cl)cc1C(=O)Nc1scc(-c2ccc(Cl)cc2)c1C(=O)O	> 100 µM	
O=C(Nc1scc(-c2ccc(Cl)cc2)c1C(=O)O)c1cc(Br)ccc1F	59.8 µM	
O=C(Nc1scc(-c2ccc(Cl)cc2)c1C(=O)O)c1cc(Cl)ccc1Cl	0.27 µM	
O=C(Nc1scc(-c2ccc(Cl)cc2)c1C(=O)O)c1cc(Cl)ccc1I	12 µM	
O=C(Nc1scc(-c2ccc(Cl)cc2)c1C(=O)O)c1cc(F)ccc1Br	0.96 µM	
O=C(O)c1c(-c2ccc(Cl)cc2)csc1NC(=O)c1cccc2ccccc12	0.79 µM	
COc1cc(CNC(=O)CCCC/C=C/C(C)C)ccc1O		inhibition [10]: 96.7%
CC(=O)Oc1ccccc1C(=O)Nc1ncc([N+](=O)[O-])s1 [NITAZOXANIDE]	0.424 µM	
O=C(Nc1scc(-c2ccc(Cl)cc2)c1C(=O)O)c1cccnc1	70.6 µM	
O=C(Nc1scc(-c2ccc(Cl)cc2)c1C(=O)O)c1cccc2c1OCO2	> 100 µM	
O=C(Nc1scc(-c2ccc(Cl)cc2)c1C(=O)O)c1cc(Cl)ccc1F	8.77 µM	
O=C(Nc1scc(-c2ccc(Cl)cc2)c1C(=O)O)c1ccncc1	6.27 µM	
O=C(Nc1scc(-c2ccc(Cl)cc2)c1C(=O)O)c1cccc(Cl)c1Cl	1.94 µM	
O=C(Nc1scc(-c2ccc(Cl)cc2)c1C(=O)O)c1c(Cl)cccc1Cl	12.1 µM	
